Patent publication US8906909B2 (Curis, Inc., priority 2009, dated 2014)

System: not given
Assay: not given

melting point | SMILES
178 to 180 °C | CC(=O)NCc1ccc(-c2nc(N3CCOCC3)c3sc(CN(C)c4ncc(C(=O)NO)cn4)cc3n2)cc1 [Compound 136, 2-(((2-(4-(acetamidomethyl)phenyl)-4-morpholinothieno[3,2-d]pyrimidin-6-yl)methyl)(methyl)amino)-N-hydroxypyrimidine-5-carboxamide]
247 °C (dec.) | COc1ccc(-c2nc(N3CCOCC3)c3sc(CN(C)c4ncc(C(=O)NO)cn4)cc3n2)cc1 [Compound 131, N-hydroxy-2-(((2-(4-methoxyphenyl)-4-morpholinothieno[3,2-d]pyrimidin-6-yl)methyl)(methyl)amino)pyrimidine-5-carboxamide]
125 to 127 °C | O=C(CCCCN1CCN(Cc2cc3nc(-c4cccc5[nH]ncc45)nc(N4CCOCC4)c3s2)CC1)NO [Compound 11, 5-(4-((2-(1H-indazol-4-yl)-4-morpholinothieno[3,2-d]pyrimidin-6-yl)methyl)piperazin-1-yl)-N-hydroxypentanamide]

System: HDACs (HeLa cell nuclear extracts)
Assay: HDAC enzymatic activity, Biomol Color de Lys system
Format: biochemical
Description: (e) An In Vitro Assay which Determines the Ability of a Test Compound to Inhibit HDAC Enzymatic Activity.
HDAC inhibitory activity was assessed using the Biomol Color de Lys system (AK-500, Biomol, Plymouth Meeting, Pa.). Briefly, HeLa cell nuclear extracts were used as a source of HDACs. Different concentrations of test compounds were serially diluted in dimethylsulphoxide (DMSO) and added to HeLa cell nuclear extracts in the presence of a colorimetric artificial substrate. Final assay condition contained 50 mM Tris/Cl, pH 8.0, 137 mM NaCl, 2.7 mM KCl and 1 mM MgCl2. Reactions were carried in room temperature (25° C.) for 1 hour before addition of developer for termination. Relative enzyme activity was measured in the WALLAC Victor II 1420 microplate reader as floorescence intensity (excitation: 350-380 nm; emission: 440-460 nm). Data were analyzed using GraphPad Prism (v4.0a) with a sigmoidal dose response curve fitting for IC50 calculation.

IC50 [nM] | SMILES
100 to 1000 | CNc1ccc(-c2nc(N3CCOCC3)c3sc(CN(C)Cc4nc5cc(/C=C/C(=O)NO)ccc5n4C)cc3n2)cn1 [Compound 329]
< 100 | Cn1cc(-c2nc(N3CCOCC3)c3sc(CN(CCO)c4ncc(C(=O)NO)cn4)cc3n2)cn1 [Compound 313]
100 to 1000 | O=C(NO)c1ccc(CNCc2cc3nc(-c4cccc5[nH]ncc45)nc(N4CCOCC4)c3s2)cc1 [Compound 203]
< 100 | O=C(CCCCNc1cc2nc(-c3cccc4[nH]ncc34)nc(N3CCOCC3)c2s1)NO [Compound 18]
< 100 | O=C(/C=C/c1ccc(S(=O)(=O)Nc2cc3nc(-c4cccc5[nH]ncc45)nc(N4CCOCC4)c3s2)cc1)NO [Compound 50]
< 100 | COC(=O)CN(Cc1cc2nc(-c3cccc4[nH]ncc34)nc(N3CCOCC3)c2s1)c1ncc(C(=O)NO)cn1 [Compound 89]
100 to 1000 | Nc1ccc(-c2nc(N3CCOCC3)c3sc(Nc4ncc(C(=O)NO)cn4)cc3n2)cc1 [Compound 273]
< 100 | CN(Cc1cc2nc(-c3cnc(C(N)=O)nc3)nc(N3CCOCC3)c2s1)c1ncc(C(=O)NO)cn1 [Compound 122]
< 100 | CC(C)C(=O)Nc1ccc(-c2nc(N3CCOCC3)c3sc(CN(C)c4ncc(C(=O)NO)cn4)cc3n2)cc1 [Compound 286]
< 100 | CC(=O)N1CCN(c2nc(-c3cccc4[nH]ncc34)nc3cc(CN(C)c4ncc(C(=O)NO)cn4)sc23)CC1 [Compound 62]
< 100 | CC1CN(c2nc(-c3cccc4[nH]ncc34)nc3cc(CN(C)c4ncc(C(=O)NO)cn4)sc23)CC(C)O1 (centres unmarked) [Compound 65]
100 to 1000 | CNc1ccc(-c2nc(N3CCOCC3)c3sc(N(C)c4ncc(C(=O)NO)cn4)cc3n2)cn1 [Compound 243]
< 100 | CN(C)c1nc(-c2cccc3[nH]ncc23)nc2cc(CN(C)c3ncc(C(=O)NO)cn3)sc12 [Compound 159]
< 100 | CN(Cc1cc2nc(-c3cccc(NS(C)(=O)=O)c3)nc(N3CCOCC3)c2s1)c1ncc(C(=O)NO)cn1 [Compound 288]
< 100 | CN(Cc1cc2nc(-c3cccc4c3CC(=O)N4)nc(N3CCOCC3)c2s1)c1ncc(C(=O)NO)cn1 [Compound 178]
< 100 | CN(Cc1cc2nc(-c3cccc(C(C)(C)O)c3)nc(N3CCOCC3)c2s1)c1ncc(C(=O)NO)cn1 [Compound 302]
< 100 | CC(C)OC(=O)Nc1ccc(-c2nc(N3CCOCC3)c3sc(CN(C)c4ncc(C(=O)NO)cn4)cc3n2)cc1 [Compound 287]
< 100 | CN(Cc1cc2nc(-c3cccc4[nH]ncc34)nc(N3CCN(CCO)CC3)c2s1)c1ncc(C(=O)NO)cn1 [Compound 63]
< 100 | CC(C)(Nc1ncc(C(=O)NO)cn1)c1cc2nc(-c3ccc(N)cc3)nc(N3CCOCC3)c2s1 [Compound 269, 2-(2-(2-(4-Aminophenyl)-4-morpholinothieno[3,2-d]pyrimidin-6-yl)propan-2-ylamino)-N-hydroxypyrimidine-5-carboxamide]
< 100 | C/C(=N/O)c1ccc(F)c(-c2nc(N3CCOCC3)c3sc(CN(C)c4ncc(C(=O)NO)cn4)cc3n2)c1 [Compound 298]
